Assay results published in patent US20240000680A1, “MONO-HYDROXY OR DI-HYDROXY DERIVATIVES OF POLYUNSATURATED FATTY ACIDS, PRODUCTION METHOD THEREFOR, AND USE THEREOF” (KOLON INDUSTRIES, INC., priority 2019, published 2024).
Values joined by “and” are separate entries in the source; they are usually repeats but may differ in a detail not shown here. Equal values may be shown once.

Tests used:
Assay type in all cases: cell-based
IL-6 [1] = assay: IL-6 expression in UVB-irradiated HaCaT human keratinocytes (ELISA), Example 6; conditions: for IL-6 expression (% of control) Average: UVB +; for IL-6 expression (% of control) Average / expression of IL-6 (Table 7, single component vs complex composition): Con(−) = 100; for reduction of expression of IL-6 compared to Con(−): after UVB irradiation; for expression of IL-6 (Table 7, single component vs complex composition): UVB 20 mJ/cm^2
Experimental: In order to identify the synergistic anti-inflammation relieving effect of the SPMs complex composition, the complex compositions (Complexes 1 to 3) of 17-HDHA, Resolvin D5, and Protectin DX and each SPM single material were treated with HaCaT cells, which are human keratinocytes to identify changes in IL-6 expression.
Specifically, first, human keratinocytes were aliquoted in a 48-well plate at a concentration of 4×10^4 cells/well and cultured at 5% CO2, 37° C. for 24 hours, and then the medium was removed and the starvation state was maintained with DMEM Serum Free media for 24 hours.
The SPMs complex composition was diluted with DMEM (FBS 2%) to make 0.5, 1, 2, and 5 μg/ml, and then cultured as above and treated with human keratinocytes from which the medium was removed for 1 hour. […] In addition, after collecting the medium, the amount of IL-6 was measured using Human IL-6 DuoSet ELISA (R&D system). The cells adhering to the bottom were washed with DPBS, dissolved with 1N NaOH, and the amount of protein was measured through BCA analysis to measure the amount of IL-6 synthesized per a given protein. In this connection, the IL-6 expression inhibitory effect of the SPMs complex composition of the present invention and each single component was identified by using a case in which nothing was treated as Con(−) and a case in which 10 μM of hydrocortisone was treated as Con(+) after UVB irradiation.

procollagen = assay: Procollagen synthesis in human dermal fibroblasts (PIP EIA), Example 7; conditions: for Procollagen synthesis (% of control) Average: 24 hours; for Procollagen synthesis (% of control) Average / amount of procollagen (Table 10, single component vs complex composition): untreated control = 100; for amount of procollagen compared to untreated control group: single components, Table 8 concentrations; for amount of procollagen (Table 10, single component vs complex composition): concentration not given in Table 10; for amount of procollagen compared to positive control group (50 μM of retinyl palmitate): at a concentration of 1 μg/ml or more
Description: Collagen, a major component of the extracellular matrix, is synthesized in the form of a precursor called procollagen. The procollagen is known to be cut and isolated from collagen molecules when a polymerization reaction occurs. By measuring the amount of procollagen, the degree of collagen biosynthesis in the cells may be estimated.
[…] In this connection, the effect of the SPM single component and its complex compositions (compositions 1 to 3) was identified by using a case in which nothing was treated as an untreated control group and a case in which 50 μM of retinyl palmitate was treated as Con(+).

TNF-α [2] = assay: TNF-α expression inhibition in UVB-irradiated human keratinocytes, Example 9; conditions: 10 μM; UVB 160 mJ/cm^2; 24 hours
Experimental: Specifically, human keratinocytes were aliquoted in a 48-well plate at a concentration of 4×10^4 cells/well and cultured for 24 hours at 5% CO2 and 37° C., then the medium was removed and starvation state was maintained with DMEM Serum Free media for 24 hours.
The composition 2 was diluted with DMEM (2% FBS) to make 0.5, 1, 2, and 5 μg/ml, and then cultured as above and treated with human keratinocytes from which the medium was removed for 1 hour. Then, for TNF-α expression, the medium was exchanged with 250 μl of DPBS (WelGENE), irradiated with 160 mJ/cm^2 of UVB, and then treated with the SPMs again and cultured for 24 hours. In addition, after collecting the medium, the amount of TNF-α was measured using Human TNF-α DuoSet ELISA (R&D system), respectively. The cells adhering to the bottom were washed with DPBS, dissolved with 1N NaOH, and the amount of protein was measured through BCA analysis to measure the amount of TNF-α synthesized per a given protein. In this connection, the effect of the SPMs complex composition was identified by using a case in which nothing was treated as a negative control group and a case in which 10 μM of hydrocortisone was treated as a positive control group.

IL-6 [3] = assay: IL-6 expression inhibition in UVB-irradiated human keratinocytes (ELISA), Example 4-2; conditions: 10 ppm; UVB 160 mJ/cm^2; 24 hours
Experimental: (§1) Human keratinocytes were aliquoted in a 48-well plate at a concentration of 4×10^4 cells/well and cultured for 24 hours at 5% CO2 and 37° C., then the medium was removed and starvation state was maintained with DMEM Serum Free media for 24 hours.
(§2) The SPM 1 and SPM 2 were diluted with DMEM (2% FBS) to make 1 ppm, and then diluted sequentially to 0.1, 0.01 and 0.001 ppm, and then cultured as above and treated with human keratinocytes from which the medium was removed for 1 hour. Then, for TNF-α or IL-6 expression, the medium was exchanged with 250 μl of DPBS (WelGENE), irradiated with 160 mJ/cm^2 of UVB, and then treated with the SPM 1 and SPM 2 again and cultured for 24 hours. In addition, after collecting the medium, the amount of TNF-α was measured using Human TNF-α DuoSet ELISA (R&D system), and the amount of IL-6 was measured using Human IL-6 DuoSet ELISA (R&D system), respectively. The cells adhering to the bottom were washed with DPBS, dissolved with 1N NaOH, and the amount of protein was measured through BCA analysis to measure the amount of TNF-α or IL-6 synthesized per a given protein. In this connection, the effect of the two reaction products SPM 1 and SPM 2 was identified by using a case in which nothing was treated as a negative control group and a case in which 10 ppm of dexamethasone was treated as a positive control group.

TNF-α [4] = assay: TNF-α expression inhibition in UVB-irradiated human keratinocytes (ELISA), Example 4-2; conditions: 10 ppm; UVB 160 mJ/cm^2; 24 hours
Experimental: as §1, §2

MMP-1 [5] = assay: Collagenase (MMP-1) expression inhibition in UVB-irradiated human dermal fibroblasts (ELISA), Example 4-4; conditions: 6 ppm; UVB 100 mJ/cm^2; 48 hours
Experimental: (§3) MMPs (matrix metalloproteinases) are enzymes with proteolytic activity, and by decomposing proteins constituting the extracellular matrix, they have an important effect on the binding of cells and proteins constituting the extracellular matrix. There are 28 types of MMPs, of which MMP-1 is an enzyme that decomposes collagen. In this example, the expression level of MMP-1 in cells was identified.
After culturing human dermal fibroblasts for 24 hours, the medium was exchanged with DPBS (WelGENE) at a concentration of 250 μl/well, and irradiated with 100 mJ/cm^2 of UVB. Then, the SPM 1 and SPM 2 were treated with DMEM (2% FBS) diluted to a concentration of 0.01, 0,1 and 1 ppm, respectively, and cultured for 48 hours. After collecting the cultured cell medium, the amount of MMP-1 was measured using a human total MMP-1 ELISA kit (R&D systems, DY901). At this connection, the effect of the two reaction products SPM 1 and SPM 2 was identified by using a case in which nothing was treated as a negative control group and a case in which 6 ppm of retinoic acid was treated as a positive control group.

MMP-1 [6] = assay: Collagenase (MMP-1) expression inhibition in UVB-irradiated human dermal fibroblasts, Example 8; conditions: 20 μM; UVB 100 mJ/cm^2; 48 hours
Experimental: as §3
Specifically, after culturing human dermal fibroblasts for 24 hours, the medium was exchanged with DPBS (WelGENE) at a concentration of 250 μl/well, and irradiated with 100 mJ/cm^2 of UVB. Then, the composition 2 was treated with DMEM (2% FBS) diluted to a concentration of 0.1, 1, 2, and 5 ppm, respectively, and cultured for 48 hours. After collecting the cultured cell medium, the amount of MMP-1 was measured using a human total MMP-1 ELISA kit (R&D systems, DY901). At this connection, the effect of composition 2 was identified by using a case in which nothing was treated as a negative control group and a case in which 20 μM of retinoic acid was treated as a positive control group.

loricrin = assay: Loricrin gene expression in human keratinocytes (RT-PCR), Example 12; conditions: 50 ppm
Description: (§4) Filaggrin, loricrin, and involucrin are known as core proteins constituting the skin barrier. Among them, filaggrin is a protein produced by decomposition of profilagrin, which constitutes keratohyalin granule (KG) present in granule cells of the epidermis, and plays an important role in the skin barrier by aggregating keratin filaments in keratinocytes. Accordingly, it was attempted to identify the skin barrier strengthening effect by identifying he expression of filaggrin and loricrin by the sample.
(§5) Human keratinocytes were cultured in DMEM medium under the same conditions as in Example 9. In order to identify the gene expression related to skin barrier improvement ability, the cultured cells were treated with the SPMs complex composition of the present invention by concentration and cultured, and then RNA was extracted and RT-PCR was performed. The amplified gene was analyzed using the Gel documentation system and Image J program.

filaggrin = assay: Filaggrin gene expression in human keratinocytes (RT-PCR), Example 12; conditions: 50 ppm
Description: as §4, §5

Row | Compound | IL-6 expression (% of control) Average (IL-6 [1]; 0.1 μg/ml) | IL-6 expression (% of control) Average (IL-6 [1]; 1 μg/ml) | IL-6 expression (% of control) Average (IL-6 [1]; 2 μg/ml) | reduction of expression of IL-6 compared to Con(−) (IL-6 [1]; 2 μg/ml) | IL-6 expression (% of control) Average (IL-6 [1]; 5 μg/ml) | expression of IL-6 (Table 7, single component vs complex composition) (IL-6 [1]; 2 μg/ml) | Procollagen synthesis (% of control) Average (procollagen; 0.01 μg/ml) | Procollagen synthesis (% of control) Average (procollagen; 0.1 μg/ml) | Procollagen synthesis (% of control) Average (procollagen; 1 μg/ml) | Procollagen synthesis (% of control) Average (procollagen; 2 μg/ml) | amount of procollagen compared to untreated control group (procollagen) | amount of procollagen (Table 10, single component vs complex composition) (procollagen) | other results
1 | CC/C=C\CC(O)/C=C/C=C\C/C=C\C/C=C\C/C=C\CCC(=O)O (racemic) [Composition 17S-HDHA, (±) 17-hydroxy (dihydroxy)-4Z, 7Z, 10Z, 13Z, 15E, 19Z-docosahexaenoic acid] | 89.63 % of control | 83 % of control | 89.17 % of control | 10.8% | 81.66 % of control | 89.17 | 212.76 % of control | 237.76 % of control | 235.8 % of control | 255.32 % of control | greater amount of procollagen than the untreated control group | 255.32 | –
2 | C[C@]12CCC(=O)C=C1CC[C@@H]1[C@@H]2[C@@H](O)C[C@@]2(C)[C@H]1CC[C@]2(O)C(=O)CO [Con(+) H.C., hydrocortisone, reference compound] | – | – | – | – | – | – | – | – | – | – | – | – | IL-6 expression (% of control) Average (IL-6 [1]; 10 μM): 31.23 % of control and 42.82 % of control; reduction of UVB-increased expression of TNF-α (TNF-α [2]): about 52%
3 | CCCCCCCCCCCCCCCC(=O)OC/C=C(C)/C=C/C=C(C)/C=C/C1=C(C)CCCC1(C)C [Con(+) R.P., retinyl palmitate, reference compound] | – | – | – | – | – | – | – | – | – | – | – | – | Procollagen synthesis (% of control) Average (procollagen; 50 μM): 249.88 % of control and 240.2 % of control
4 | CC/C=C\C[C@H](O)/C=C/C=C\C=C\[C@@H](O)C/C=C\C/C=C\CCC(=O)O [PDX, 10S, 17S-dihydroxy-4Z,7Z,11E,13Z,15E,19Z-docosahexaenoic acid] | 95.36 % of control | 102.69 % of control | 88.13 % of control | 11.8% | 86.72 % of control | 88.13 | 237.15 % of control | 244.1 % of control | 251.41 % of control | 254.1 % of control | greater amount of procollagen than the untreated control group | 254.1 | amount of procollagen compared to positive control group (50 μM of retinyl palmitate) (procollagen): greater amount of procollagen was identified compared to the positive control group
5 | CC/C=C\C[C@H](O)/C=C/C=C\C/C=C\C=C\[C@@H](O)C/C=C\CCC(=O)O [RvD5, 7S, 17S-dihydroxy-4Z, 8E, 10Z, 13Z, 15E, 19Z-docosahexaenoic acid] | 99.58 % of control | 109.86 % of control | 99.49 % of control | 0.5% | 83.38 % of control | 99.49 | 245.68 % of control | 248 % of control | 249.34 % of control | 255.32 % of control | greater amount of procollagen than the untreated control group | 255.32 | amount of procollagen compared to positive control group (50 μM of retinyl palmitate) (procollagen): greater amount of procollagen was identified compared to the positive control group
6 | C[C@@H]1C[C@H]2[C@@H]3CCC4=CC(=O)C=C[C@]4(C)[C@@]3(F)[C@@H](O)C[C@]2(C)[C@@]1(O)C(=O)CO [dexamethasone] | – | – | – | – | – | – | – | – | – | – | – | – | reduction of UVB-increased expression of IL-6 (IL-6 [3]): about 88%; reduction of UVB-increased expression of TNF-α (TNF-α [4]): about 35%
7 | CC1=C(/C=C/C(C)=C/C=C/C(C)=C/C(=O)O)C(C)(C)CCC1 [retinoic acid] | – | – | – | – | – | – | – | – | – | – | – | – | reduction of UVB-increased expression of MMP-1 (MMP-1 [5]): about 70%; reduction of UVB-increased expression of MMP-1 (MMP-1 [6]): about 70%
8 | hyaluronic acid | – | – | – | – | – | – | – | – | – | – | – | – | increase in expression of loricrin (loricrin): 97.7%; increase in expression of filaggrin (filaggrin): 52.6%
